SMILES strings stand for the structures.

One assay is described as follows: Inhibition of [3H](+)-pentazocine binding to Sigma receptor type 1.
What is called Ki is the dissociation constant of the complex between target and ligand, obtained from inhibition or displacement. Consider `COc1ccc2c(c1)[C@]1(CCN(C)CC(=O)OC(C)(C)C)CCCC[C@@H]1C=C2` [{[2-((4aS,10aR)-6-Methoxy-1,3,4,10a-tetrahydro-2H-phenanthren-4a-yl)-ethyl]-methyl-amino}-acetic acid tert-butyl ester; compound with GENERIC INORGANIC NEUTRAL COMPONENT], for which the Ki was determined as 373 nM.

Assay in another assay: as above
The source holds these as a separate data set.
As for `COc1ccc2c(c1)[C@]1(CCN(C)CCO)CCCC[C@@H]1C=C2` [2-{[2-((4aS,10aR)-6-Methoxy-1,3,4,10a-tetrahydro-2H-phenanthren-4a-yl)-ethyl]-methyl-amino}-ethanol], the Ki worked out at 161 nM. Still for that read-out and setting: the same measure for `COc1ccc2c(c1)[C@]1(CCN(C)CCOCc3ccccc3)CCCC[C@@H]1C=C2` [(2-Benzyloxy-ethyl)-[2-((4aS,10aR)-6-methoxy-1,3,4,10a-tetrahydro-2H-phenanthren-4a-yl)-ethyl]-methyl-amine; compound with GENERIC INORGANIC NEUTRAL COMPONENT]: 241 nM.

The compound `COCCN(C)CC[C@@]12CCCC[C@@H]1C=Cc1ccc(OC)cc12` [(2-Methoxy-ethyl)-[2-((4aS,10aR)-6-methoxy-1,3,4,10a-tetrahydro-2H-phenanthren-4a-yl)-ethyl]-methyl-amine; compound with GENERIC INORGANIC NEUTRAL COMPONENT] had a Ki of 49 nM.

In turn, `C=CCN(C)CC[C@@]12CCCC[C@@H]1C=Cc1ccc(OC)cc12` [Allyl-[2-((4aS,10aR)-6-methoxy-1,3,4,10a-tetrahydro-2H-phenanthren-4a-yl)-ethyl]-methyl-amine; compound with GENERIC INORGANIC NEUTRAL COMPONENT] displayed a Ki of 49 nM. The same measure, in the same setting: under `COc1ccc2c(c1)[C@]13CCCC[C@@H]1[C@H](C2)N(C)CC3` [DEXTROMETHORPHAN] stands 348 nM.

On to `COc1ccc2c(c1)[C@]1(CC[N+](C)(C)C(=O)OC(C)(C)C)CCCC[C@@H]1C=C2` [N-{2-[(4aS,10aR)-6-methoxy-1,2,3,4,4a,10a-hexahydrophenanthren-4a-yl]ethyl}-1-(tert-butoxy)-N,N-dimethylcarbonyl{2-[(4aS,10aR)-6-methoxy-1,2,3,4,4a,10a-hexahydrophenanthren-4a-yl]ethyl}dimethylazanium], for which the Ki was above 3300 nM. Same read-out and setting: under `COc1ccc2c(c1)[C@]1(CCN(C)C)CCCC[C@@H]1C=C2` [[2-((4aS,10aR)-6-Methoxy-1,3,4,10a-tetrahydro-2H-phenanthren-4a-yl)-ethyl]-dimethyl-amine; compound with GENERIC INORGANIC NEUTRAL COMPONENT] stands 245 nM; under `CNCC[C@@]12CCCC[C@@H]1C=Cc1ccc(OC)cc12` [[2-((4aS,10aR)-6-Methoxy-1,3,4,10a-tetrahydro-2H-phenanthren-4a-yl)-ethyl]-methyl-amine], 456 nM.

For the compound `CCOC(=O)N(C)CC[C@@]12CCCC[C@@H]1C=Cc1ccc(OC)cc12` [[2-((4aS,10aR)-6-Methoxy-1,3,4,10a-tetrahydro-2H-phenanthren-4a-yl)-ethyl]-methyl-carbamic acid ethyl ester], the Ki was above 3300 nM.

In the case of `CN(CC[C@]12CCCC[C@H]1C=Cc1ccc(OCC(=O)OC(C)(C)C)cc12)CC(=O)OC(C)(C)C` [{(4bR,8aS)-4b-[2-(tert-Butoxycarbonylmethyl-methyl-amino)-ethyl]-4b,5,6,7,8,8a-hexahydro-phenanthren-3-yloxy}-acetic acid tert-butyl ester], the Ki worked out at 115 nM.

`CN(CC[C@@]12CCCC[C@@H]1C=Cc1ccc(OCC(=O)OC(C)(C)C)cc12)CC(=O)OC(C)(C)C` [{(4bS,8aR)-4b-[2-(tert-Butoxycarbonylmethyl-methyl-amino)-ethyl]-4b,5,6,7,8,8a-hexahydro-phenanthren-3-yloxy}-acetic acid tert-butyl ester] came in with a Ki of 14 nM. Against the preceding compound, the Ki is about 8.2-fold lower. On the same count and under the same terms, under `COc1ccc2c(c1)[C@]1(CCN(C)CC(=O)OC(C)(C)C)CCCC[C@@H]1C=C2` [{[2-((4aS,10aR)-6-Methoxy-1,3,4,10a-tetrahydro-2H-phenanthren-4a-yl)-ethyl]-methyl-amino}-acetic acid tert-butyl ester; compound with GENERIC INORGANIC NEUTRAL COMPONENT] stands 37 nM.

The values are drawn from BindingDB's records for doi:10.1016/j.bmcl.2003.12.105 (Ucb Pharma, 2004).
